ChEMBL document CHEMBL5291721, “A preclinical secondary pharmacology resource illuminates target-adverse drug reaction associations of marketed drugs” (Nat Commun, 2023)

Key:
[1] = target: cGMP-inhibited 3',5'-cyclic phosphodiesterase 3A (Homo sapiens, UniProt Q14432); assay type: functional
Adenosine receptor A1 = target: T1, Adenosine receptor A1 (Homo sapiens, UniProt P30542)
T1 sequence (P30542 whole entry): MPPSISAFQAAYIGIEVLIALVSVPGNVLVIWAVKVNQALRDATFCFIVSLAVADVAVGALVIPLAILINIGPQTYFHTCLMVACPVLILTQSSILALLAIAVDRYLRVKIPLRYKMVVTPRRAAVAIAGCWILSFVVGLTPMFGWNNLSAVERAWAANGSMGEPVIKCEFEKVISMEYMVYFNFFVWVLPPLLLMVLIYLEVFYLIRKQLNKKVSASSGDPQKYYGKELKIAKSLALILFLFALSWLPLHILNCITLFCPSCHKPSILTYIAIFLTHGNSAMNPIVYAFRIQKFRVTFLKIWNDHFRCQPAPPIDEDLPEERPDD

[2] = target: T2, Gastrin/cholecystokinin type B receptor (Homo sapiens, UniProt P32239)
T2 sequence (P32239 whole entry): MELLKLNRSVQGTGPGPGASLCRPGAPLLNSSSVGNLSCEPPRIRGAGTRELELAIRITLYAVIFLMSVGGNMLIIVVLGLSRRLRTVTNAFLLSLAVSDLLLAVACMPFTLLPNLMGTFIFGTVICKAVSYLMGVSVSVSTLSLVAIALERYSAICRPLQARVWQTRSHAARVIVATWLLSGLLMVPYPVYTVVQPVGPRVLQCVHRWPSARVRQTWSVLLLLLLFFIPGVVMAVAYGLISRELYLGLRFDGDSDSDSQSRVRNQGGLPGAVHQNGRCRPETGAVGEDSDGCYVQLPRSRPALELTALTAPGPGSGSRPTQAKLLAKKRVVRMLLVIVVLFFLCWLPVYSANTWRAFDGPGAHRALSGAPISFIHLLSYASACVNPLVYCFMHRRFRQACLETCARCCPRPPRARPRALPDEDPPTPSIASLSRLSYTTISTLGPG

Cannabinoid receptor 1 = Cannabinoid receptor 1 (Homo sapiens, UniProt P21554); assay type: functional, cell-based
[3] = target: Beta-2 adrenergic receptor (Homo sapiens, UniProt P07550)
[4] = target: T3, Alpha-1A adrenergic receptor (Homo sapiens, UniProt P35348); assay type: functional, cell-based
T3 sequence (P35348 whole entry): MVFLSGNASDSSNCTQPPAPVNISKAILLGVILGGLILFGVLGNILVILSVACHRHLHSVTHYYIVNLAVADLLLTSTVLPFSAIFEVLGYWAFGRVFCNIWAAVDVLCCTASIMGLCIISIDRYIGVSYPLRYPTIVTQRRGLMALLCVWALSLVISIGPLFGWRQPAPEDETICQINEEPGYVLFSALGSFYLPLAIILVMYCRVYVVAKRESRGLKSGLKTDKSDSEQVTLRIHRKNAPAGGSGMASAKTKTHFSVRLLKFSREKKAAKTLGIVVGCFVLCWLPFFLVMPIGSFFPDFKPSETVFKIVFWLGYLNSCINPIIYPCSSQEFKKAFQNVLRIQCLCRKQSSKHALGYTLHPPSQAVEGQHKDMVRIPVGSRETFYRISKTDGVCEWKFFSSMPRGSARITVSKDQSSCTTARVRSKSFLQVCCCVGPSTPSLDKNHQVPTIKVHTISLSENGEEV

[5] = target: T4, Neuropeptide Y receptor type 1 (Homo sapiens, UniProt P25929)
T4 sequence (P25929 whole entry): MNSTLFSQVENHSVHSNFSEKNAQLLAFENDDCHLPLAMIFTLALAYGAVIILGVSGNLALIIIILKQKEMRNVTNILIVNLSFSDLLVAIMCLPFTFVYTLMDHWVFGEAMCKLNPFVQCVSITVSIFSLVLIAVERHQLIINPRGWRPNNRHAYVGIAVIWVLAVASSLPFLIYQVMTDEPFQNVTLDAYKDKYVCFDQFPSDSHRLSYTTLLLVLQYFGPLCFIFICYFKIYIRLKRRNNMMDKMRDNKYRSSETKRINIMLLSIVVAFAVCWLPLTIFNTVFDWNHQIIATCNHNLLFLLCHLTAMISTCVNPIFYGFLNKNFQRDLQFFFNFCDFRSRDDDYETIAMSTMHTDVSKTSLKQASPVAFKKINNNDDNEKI

Adenosine receptor A3 = target: T5, Adenosine receptor A3 (Homo sapiens, UniProt P0DMS8)
T5 sequence (P0DMS8 whole entry): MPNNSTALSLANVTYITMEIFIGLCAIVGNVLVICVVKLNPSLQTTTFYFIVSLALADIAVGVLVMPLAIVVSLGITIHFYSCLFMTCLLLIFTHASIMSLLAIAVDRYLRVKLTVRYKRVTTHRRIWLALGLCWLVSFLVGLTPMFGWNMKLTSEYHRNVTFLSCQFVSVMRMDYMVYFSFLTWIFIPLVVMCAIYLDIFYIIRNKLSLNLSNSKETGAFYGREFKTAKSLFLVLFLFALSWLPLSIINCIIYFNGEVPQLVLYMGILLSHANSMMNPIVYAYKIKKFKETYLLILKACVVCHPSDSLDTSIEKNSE

[6] = target: T6, Prostaglandin G/H synthase 1 (Rattus norvegicus, UniProt Q63921); assay type: functional
T6 sequence (Q63921 whole entry): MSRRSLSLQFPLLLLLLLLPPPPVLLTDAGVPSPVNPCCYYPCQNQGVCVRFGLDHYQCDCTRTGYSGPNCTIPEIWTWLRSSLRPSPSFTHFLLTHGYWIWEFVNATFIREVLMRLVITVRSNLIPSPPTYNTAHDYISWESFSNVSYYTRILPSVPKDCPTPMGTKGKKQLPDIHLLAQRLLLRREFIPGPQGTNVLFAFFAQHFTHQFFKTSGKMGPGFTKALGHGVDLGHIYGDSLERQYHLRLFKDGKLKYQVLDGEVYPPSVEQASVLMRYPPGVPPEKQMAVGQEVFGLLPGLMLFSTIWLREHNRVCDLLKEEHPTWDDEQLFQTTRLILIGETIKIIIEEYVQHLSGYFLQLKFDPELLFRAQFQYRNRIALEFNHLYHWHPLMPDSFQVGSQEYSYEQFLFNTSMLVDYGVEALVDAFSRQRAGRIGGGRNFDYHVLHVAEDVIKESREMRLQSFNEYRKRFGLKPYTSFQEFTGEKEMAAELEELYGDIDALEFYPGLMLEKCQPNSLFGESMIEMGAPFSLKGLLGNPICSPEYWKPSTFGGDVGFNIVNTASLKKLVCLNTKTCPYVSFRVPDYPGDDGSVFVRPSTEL

Vasopressin V2 receptor = Vasopressin V2 receptor (Homo sapiens, UniProt P30518)
Melanocortin receptor 4 = Melanocortin receptor 4 (Homo sapiens, UniProt P32245)
Also: assay procedure not described here.

cGMP-inhibited 3',5'-cyclic phosphodiesterase 3A, sequence (Q14432 whole entry): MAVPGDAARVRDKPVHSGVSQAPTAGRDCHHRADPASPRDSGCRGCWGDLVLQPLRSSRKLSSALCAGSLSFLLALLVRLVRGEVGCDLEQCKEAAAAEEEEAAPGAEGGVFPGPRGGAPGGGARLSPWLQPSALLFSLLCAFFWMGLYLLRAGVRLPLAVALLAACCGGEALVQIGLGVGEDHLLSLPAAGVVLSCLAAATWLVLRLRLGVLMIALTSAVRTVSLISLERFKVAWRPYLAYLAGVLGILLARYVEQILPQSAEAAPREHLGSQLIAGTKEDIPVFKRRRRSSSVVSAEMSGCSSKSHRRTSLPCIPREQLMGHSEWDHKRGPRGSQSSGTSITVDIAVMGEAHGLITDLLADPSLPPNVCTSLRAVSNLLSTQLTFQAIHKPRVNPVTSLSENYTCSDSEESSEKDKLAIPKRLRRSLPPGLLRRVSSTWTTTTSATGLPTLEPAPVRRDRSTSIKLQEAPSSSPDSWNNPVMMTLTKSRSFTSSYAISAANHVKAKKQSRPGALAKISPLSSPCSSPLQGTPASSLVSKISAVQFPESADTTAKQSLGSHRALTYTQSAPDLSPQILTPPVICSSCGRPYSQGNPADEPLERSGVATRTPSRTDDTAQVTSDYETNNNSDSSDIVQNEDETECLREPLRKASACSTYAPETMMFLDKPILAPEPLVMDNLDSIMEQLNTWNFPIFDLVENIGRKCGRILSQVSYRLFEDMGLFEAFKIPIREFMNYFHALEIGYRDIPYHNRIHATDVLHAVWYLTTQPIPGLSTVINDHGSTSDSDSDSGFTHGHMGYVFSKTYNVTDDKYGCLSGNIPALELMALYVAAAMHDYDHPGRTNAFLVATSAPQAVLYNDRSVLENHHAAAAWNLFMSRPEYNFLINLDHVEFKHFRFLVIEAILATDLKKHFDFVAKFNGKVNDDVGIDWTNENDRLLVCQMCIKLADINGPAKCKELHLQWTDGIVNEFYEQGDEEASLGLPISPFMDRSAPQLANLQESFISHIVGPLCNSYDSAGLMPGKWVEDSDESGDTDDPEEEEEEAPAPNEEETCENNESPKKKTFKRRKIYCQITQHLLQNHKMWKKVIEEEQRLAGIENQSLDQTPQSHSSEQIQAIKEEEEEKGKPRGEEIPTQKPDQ
Vasopressin V2 receptor, sequence (P30518 whole entry): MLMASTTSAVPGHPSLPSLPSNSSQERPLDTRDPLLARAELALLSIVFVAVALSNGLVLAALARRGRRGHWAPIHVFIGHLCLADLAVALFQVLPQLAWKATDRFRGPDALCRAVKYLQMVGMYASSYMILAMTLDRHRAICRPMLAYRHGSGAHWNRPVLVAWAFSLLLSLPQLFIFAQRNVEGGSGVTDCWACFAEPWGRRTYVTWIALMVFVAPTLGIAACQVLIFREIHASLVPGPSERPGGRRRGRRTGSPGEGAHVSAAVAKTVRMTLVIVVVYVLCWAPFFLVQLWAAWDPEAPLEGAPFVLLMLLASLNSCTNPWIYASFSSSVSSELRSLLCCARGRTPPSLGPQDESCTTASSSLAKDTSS
Beta-2 adrenergic receptor, sequence (P07550 whole entry): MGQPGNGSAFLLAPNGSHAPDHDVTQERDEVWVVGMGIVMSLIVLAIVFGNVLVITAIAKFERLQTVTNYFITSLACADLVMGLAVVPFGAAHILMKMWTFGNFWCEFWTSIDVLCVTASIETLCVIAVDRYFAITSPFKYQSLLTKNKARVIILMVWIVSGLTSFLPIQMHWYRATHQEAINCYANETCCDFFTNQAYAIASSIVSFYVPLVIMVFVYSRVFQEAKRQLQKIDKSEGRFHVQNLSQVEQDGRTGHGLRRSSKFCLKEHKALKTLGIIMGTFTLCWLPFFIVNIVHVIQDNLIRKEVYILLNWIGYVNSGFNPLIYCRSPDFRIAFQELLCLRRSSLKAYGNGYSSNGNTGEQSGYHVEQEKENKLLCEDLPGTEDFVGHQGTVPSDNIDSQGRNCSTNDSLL
Cannabinoid receptor 1, sequence (P21554 whole entry): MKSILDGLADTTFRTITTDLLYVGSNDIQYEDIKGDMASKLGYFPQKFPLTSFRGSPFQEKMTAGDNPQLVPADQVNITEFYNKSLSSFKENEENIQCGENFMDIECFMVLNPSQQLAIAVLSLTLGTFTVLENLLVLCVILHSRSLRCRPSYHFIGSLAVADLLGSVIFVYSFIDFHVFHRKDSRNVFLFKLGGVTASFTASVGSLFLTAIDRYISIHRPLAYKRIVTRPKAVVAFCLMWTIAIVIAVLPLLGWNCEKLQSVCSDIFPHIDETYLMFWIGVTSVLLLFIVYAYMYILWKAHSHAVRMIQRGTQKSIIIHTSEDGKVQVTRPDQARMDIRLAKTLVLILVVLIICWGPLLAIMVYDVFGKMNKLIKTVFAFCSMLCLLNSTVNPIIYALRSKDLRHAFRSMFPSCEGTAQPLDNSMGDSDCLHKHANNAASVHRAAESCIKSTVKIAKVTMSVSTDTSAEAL
Melanocortin receptor 4, sequence (P32245 whole entry): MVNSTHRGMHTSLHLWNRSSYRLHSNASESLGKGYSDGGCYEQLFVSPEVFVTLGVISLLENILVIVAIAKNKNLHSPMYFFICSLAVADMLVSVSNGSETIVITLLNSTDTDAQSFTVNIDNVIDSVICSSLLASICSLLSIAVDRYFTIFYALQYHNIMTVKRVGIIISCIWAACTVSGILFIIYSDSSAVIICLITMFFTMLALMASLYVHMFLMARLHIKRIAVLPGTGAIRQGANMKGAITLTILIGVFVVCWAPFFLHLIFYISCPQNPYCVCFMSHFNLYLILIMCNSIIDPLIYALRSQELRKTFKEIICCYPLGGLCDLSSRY

Compound	AC50 [1] [µM]	AC50 (Adenosine receptor A1) [µM]	AC50 [2] [µM]	AC50 (Cannabinoid receptor 1) [µM]	AC50 [3] [µM]	AC50 [4] [µM]	AC50 [5] [µM]	AC50 (Adenosine receptor A3) [µM]	AC50 [6] [µM]	AC50 (Vasopressin V2 receptor) [µM]	AC50 (Melanocortin receptor 4) [µM]
NS(=O)(=O)c1ccc(N2CCCCS2(=O)=O)cc1	> 30	> 30	> 30	> 30	> 30	> 30	> 30	> 30	> 30	> 30	–
CCC1(CC)C(=O)NC(=O)N(C)C1=O [METHARBITAL]	> 30	> 10	–	–	> 10	–	> 10	> 10	> 10	> 10	> 10
Cc1ccc(S(=O)(=O)NC(=O)N[C@H]2[C@H]3CC[C@@](C)([C@H]2O)C3(C)C)cc1 [GLIBORNURIDE]	> 30	> 30	> 30	> 30	> 30	> 30	> 30	> 30	> 30	> 30	–
CC(C)(C)NCC(O)COc1cccc2c1CC(O)C(O)C2 (centres undefined) [NADOLOL]	> 30	> 10	–	> 30	–	> 30	> 10	> 10	> 10	> 10	> 10
CO/N=C(\C(=O)N[C@@H]1C(=O)N2C(C(=O)O)=C(CSc3nc(C)c(CC(=O)O)s3)CS[C@H]12)c1csc(N)n1 [CEFODIZIME]	> 30	> 30	> 30	> 30	> 30	> 30	> 30	> 30	27	> 30	–
O=C(O)CCCC[C@@H]1SC[C@@H]2NC(=O)N[C@@H]21 [BIOTIN]	> 30	> 10	–	–	–	–	> 10	> 10	> 10	> 10	> 10
CCCCOC(=O)c1ccc(N)cc1 [BUTAMBEN]	> 30	> 30	> 30	> 30	> 30	> 30	> 30	> 30	0.6	> 30	–
CC(=O)OCC(=O)[C@@]1(O)CC[C@H]2[C@@H]3CCC4=CC(=O)CC[C@]4(C)[C@@]3(F)[C@@H](O)C[C@@]21C [FLUDROCORTISONE ACETATE]	> 30	> 30	> 30	> 30	> 30	> 30	> 30	> 30	> 30	> 30	–
CO/N=C(\C(=O)N[C@@H]1C(=O)N2C(C(=O)[O-])=C(C[n+]3ccc(N)n3CCO)CS[C@H]12)c1csc(N)n1 [CEFOSELIS]	> 30	> 30	> 30	> 30	> 30	> 30	> 30	> 30	> 30	> 30	–
COc1cc(N)cn[n+]1-c1ccccc1 [AMEZINIUM METILSULFATE]	> 30	> 30	> 30	> 30	> 30	> 30	> 30	> 30	> 30	> 30	–
CN(C)CCOCC(=O)NC12CC3CC(CC(C3)C1)C2 [TROMANTADINE]	> 30	> 30	> 30	> 30	> 30	> 30	> 30	> 30	> 30	> 30	–
CNCCc1ccccn1 [BETAHISTINE]	> 30	> 30	> 30	> 30	> 30	> 30	> 30	> 30	> 30	> 30	–
CCCO[C@H]1[C@@H]([C@@H](COCc2ccc(Cl)cc2)OCc2ccc(Cl)cc2)OC(OCC)[C@@H]1O (some centres undefined) [CLOBENOSIDE]	> 30	> 30	> 30	> 30	> 30	> 30	> 30	20	> 10	> 30	–
CC1=C(/C=C/C(C)=C/C=C/C(C)=C/C(=O)Oc2c(C)c(C)c3c(c2C)CCC(C)(CCCC(C)CCCC(C)CCCC(C)C)O3)C(C)(C)CCC1 (centres undefined) [TRETINOIN TOCOFERIL]	> 30	> 30	> 30	> 30	> 30	> 30	> 30	> 30	> 30	> 30	–
CCN(CC)Cc1nccn1-c1ccc([N+](=O)[O-])cc1C(=O)c1ccccc1Cl [NIZOFENONE]	> 30	> 30	> 30	> 30	> 30	> 30	> 30	> 30	> 30	> 30	–
CCCCOC(=O)C(=O)Nc1cccc(-c2nnn[nH]2)c1 [TAZANOLAST]	> 30	> 30	> 30	> 30	> 30	> 30	> 30	> 30	> 30	> 30	–
CC(=O)Oc1cccc2c1C(=O)c1c(OC(C)=O)cc(C(=O)O)cc1C2=O [DIACEREIN]	> 30	24	> 30	> 30	> 30	21	> 30	17	0.9	> 30	–
